Structures can show the parent of a compound that is named as a salt.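 Results reflect a 48-hour exposure of cells in 96-well plates to compound at five concentrations. The concentration for 50% growth inhibition is given as GI50.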 The source made the active and inactive calls. Rule as the data show it: active = GI50 up to about 1.1 µM and inactive = higher.
How the values were obtained:
Test in all cases: inhibition of tumour cell growth, NCI panel, 48 h
OVCAR-8 = tested on: OVCAR-8
NCI-H460 = tested on: NCI-H460
786-0 = tested on: 786-0
EKVX = tested on: EKVX
TK-10 = tested on: TK-10
BT-549 = tested on: BT-549
NCI/ADR-RES = tested on: NCI/ADR-RES
NCI-H226 = tested on: NCI-H226
UACC-257 = tested on: UACC-257
SN12C = tested on: SN12C
SNB-19 = tested on: SNB-19
SK-MEL-5 = tested on: SK-MEL-5
SF-268 = tested on: SF-268
NCI-H23 = tested on: NCI-H23
A498 = tested on: A498
NCI-H522 = tested on: NCI-H522
HL-60 = tested on: HL-60
LOX IMVI = tested on: LOX IMVI
HCC 2998 = tested on: HCC 2998

Compound | GI50 (OVCAR-8) | GI50 (NCI-H460) | GI50 (786-0) | GI50 (EKVX) | GI50 (TK-10) | GI50 (BT-549) | GI50 (NCI/ADR-RES) | GI50 (NCI-H226) | GI50 (UACC-257) | GI50 (SN12C) | GI50 (SNB-19) | GI50 (SK-MEL-5) | GI50 (SF-268) | GI50 (NCI-H23) | GI50 (A498) | GI50 (NCI-H522) | GI50 (HL-60) | GI50 (LOX IMVI) | GI50 (HCC 2998)
N#Cc1c(NC(=O)CCC(=O)O)ccc2ccccc12 | > 100 µM (inactive) | > 100 µM (inactive) | > 100 µM (inactive) | > 100 µM (inactive) | > 100 µM (inactive) | > 100 µM (inactive) | > 100 µM (inactive) | > 100 µM (inactive) | > 100 µM (inactive) | > 100 µM (inactive) | > 100 µM (inactive) | > 100 µM (inactive) | > 100 µM (inactive) | > 100 µM (inactive) | > 100 µM (inactive) | > 100 µM (inactive) | – | – | –
CN1CCc2nc(N)nc(-c3nc(N)nc4c3CN(C)CC4)c2C1 | > 100 µM (inactive) | > 100 µM (inactive) | > 100 µM (inactive) | > 100 µM (inactive) | > 100 µM (inactive) | > 100 µM (inactive) | > 100 µM (inactive) | > 100 µM (inactive) | > 100 µM (inactive) | > 100 µM (inactive) | > 100 µM (inactive) | > 100 µM (inactive) | > 100 µM (inactive) | > 100 µM (inactive) | > 100 µM (inactive) | > 100 µM (inactive) | > 100 µM (inactive) | > 100 µM (inactive) | –
CC(=O)OCc1cc(=O)n2c([nH]c3ccccc32)c1C#N | > 100 µM (inactive) | 18.6 µM (inactive) | 40.6 µM (inactive) | 72.3 µM (inactive) | 82.4 µM (inactive) | > 100 µM (inactive) | > 100 µM (inactive) | > 100 µM (inactive) | > 100 µM (inactive) | 67 µM (inactive) | 80.2 µM (inactive) | 49.9 µM (inactive) | – | > 100 µM (inactive) | 69.2 µM (inactive) | – | 42.3 µM (inactive) | 68.7 µM (inactive) | 42.6 µM (inactive)
Cc1n[nH]c(=O)n1/N=C/c1cccs1 | > 100 µM (inactive) | > 100 µM (inactive) | > 100 µM (inactive) | > 100 µM (inactive) | – | > 100 µM (inactive) | > 100 µM (inactive) | > 100 µM (inactive) | > 100 µM (inactive) | > 100 µM (inactive) | > 100 µM (inactive) | – | > 100 µM (inactive) | > 100 µM (inactive) | > 100 µM (inactive) | – | – | > 100 µM (inactive) | > 100 µM (inactive)
O=C1C=CC2(C=C1)O[C@H](CCc1ccccc1)[C@@H](CCc1ccccc1)O2 | > 100 µM (inactive) | > 100 µM (inactive) | > 100 µM (inactive) | 24 µM (inactive) | > 100 µM (inactive) | > 100 µM (inactive) | > 100 µM (inactive) | > 100 µM (inactive) | > 100 µM (inactive) | > 100 µM (inactive) | > 100 µM (inactive) | > 100 µM (inactive) | 61.8 µM (inactive) | > 100 µM (inactive) | > 100 µM (inactive) | – | > 100 µM (inactive) | 12.3 µM (inactive) | –
COC(=O)N1CC(=O)C(C(=O)NC23CC4CC(CC(C4)C2)C3)C1 (stereo unspecified) | 73.1 µM (inactive) | 78.7 µM (inactive) | 33.3 µM (inactive) | – | > 100 µM (inactive) | 66.7 µM (inactive) | 84.1 µM (inactive) | > 100 µM (inactive) | > 100 µM (inactive) | – | > 100 µM (inactive) | 45.6 µM (inactive) | 37.7 µM (inactive) | > 100 µM (inactive) | > 100 µM (inactive) | 49.3 µM (inactive) | 32.1 µM (inactive) | – | 37 µM (inactive)
Cn1c(COC(=O)NC2CCCCC2)c(COC(=O)NC2CCCCC2)c2ccc3cc(Cl)c(Cl)cc3c21 | 28.2 µM (inactive) | 4.41 µM (inactive) | 6 µM (inactive) | 27.7 µM (inactive) | 16.7 µM (inactive) | 16.4 µM (inactive) | 53.1 µM (inactive) | 34.2 µM (inactive) | 14.5 µM (inactive) | 11.7 µM (inactive) | 11.1 µM (inactive) | 11.7 µM (inactive) | 6.4 µM (inactive) | 15.6 µM (inactive) | 12.7 µM (inactive) | – | 9.62 µM (inactive) | 13.6 µM (inactive) | 13.7 µM (inactive)
CN(C)C(=O)C(F)(F)C(c1ccccc1Br)C1C(=O)N(C)C(=O)N(C)C1=O (stereo unspecified) | > 100 µM (inactive) | > 100 µM (inactive) | > 100 µM (inactive) | > 100 µM (inactive) | > 100 µM (inactive) | > 100 µM (inactive) | > 100 µM (inactive) | > 100 µM (inactive) | > 100 µM (inactive) | – | > 100 µM (inactive) | > 100 µM (inactive) | > 100 µM (inactive) | > 100 µM (inactive) | > 100 µM (inactive) | – | – | > 100 µM (inactive) | > 100 µM (inactive)
CCOP(=O)(OCC)/C(C#N)=C(\C)c1ccco1 | > 10 µM (inactive) | > 10 µM (inactive) | > 10 µM (inactive) | > 10 µM (inactive) | > 10 µM (inactive) | > 10 µM (inactive) | > 10 µM (inactive) | > 10 µM (inactive) | > 10 µM (inactive) | > 10 µM (inactive) | > 10 µM (inactive) | > 10 µM (inactive) | > 10 µM (inactive) | > 10 µM (inactive) | > 10 µM (inactive) | – | > 10 µM (inactive) | > 10 µM (inactive) | > 10 µM (inactive)
COC(=O)[C@H]1[C@H](C(=O)OC)[C@@H](C)c2c(ccc3c2[nH]c2ccccc23)[C@@H]1C | 46.3 µM (inactive) | 36.8 µM (inactive) | 21.2 µM (inactive) | 69.8 µM (inactive) | 26.4 µM (inactive) | > 100 µM (inactive) | > 100 µM (inactive) | > 100 µM (inactive) | 19.4 µM (inactive) | 13.2 µM (inactive) | 56.4 µM (inactive) | > 100 µM (inactive) | 48.9 µM (inactive) | 41.2 µM (inactive) | > 100 µM (inactive) | 41.5 µM (inactive) | 5.81 µM (inactive) | 22.6 µM (inactive) | –
O=C1c2ccccc2C(=O)N1CCCCNOCCCN1C(=O)c2ccccc2C1=O | > 100 µM (inactive) | > 100 µM (inactive) | > 100 µM (inactive) | > 100 µM (inactive) | > 100 µM (inactive) | > 100 µM (inactive) | > 100 µM (inactive) | > 100 µM (inactive) | > 100 µM (inactive) | > 100 µM (inactive) | > 100 µM (inactive) | > 100 µM (inactive) | > 100 µM (inactive) | > 100 µM (inactive) | > 100 µM (inactive) | > 100 µM (inactive) | – | > 100 µM (inactive) | > 100 µM (inactive)
CC(C)(C)C(=O)OC(N)/C=C/c1ccccc1 (stereo unspecified) | > 100 µM (inactive) | > 100 µM (inactive) | > 100 µM (inactive) | > 100 µM (inactive) | – | > 100 µM (inactive) | > 100 µM (inactive) | > 100 µM (inactive) | > 100 µM (inactive) | > 100 µM (inactive) | – | > 100 µM (inactive) | – | > 100 µM (inactive) | > 100 µM (inactive) | > 100 µM (inactive) | 76.2 µM (inactive) | – | > 100 µM (inactive)
CSC1=N/C(=C\c2ccco2)C(=O)N1CN1CCOCC1 | 58.9 µM (inactive) | 13.9 µM (inactive) | 48.6 µM (inactive) | > 79.1 µM (inactive) | > 58.1 µM (inactive) | 19.4 µM (inactive) | > 61.8 µM (inactive) | 75 µM (inactive) | 29.7 µM (inactive) | > 52.8 µM (inactive) | > 93.1 µM (inactive) | 41.1 µM (inactive) | > 44.4 µM (inactive) | > 100 µM (inactive) | > 60.1 µM (inactive) | > 100 µM (inactive) | – | 30.7 µM (inactive) | 25.7 µM (inactive)
Cc1cc(N(CCC#N)CCC#N)ccc1C(/N=N/c1ccc(Cl)cc1)=N\NC(=O)c1cc(Cl)ccc1O | 35.6 µM (inactive) | 27.9 µM (inactive) | 30.6 µM (inactive) | 36.4 µM (inactive) | 30 µM (inactive) | 36.7 µM (inactive) | 52.8 µM (inactive) | 28.7 µM (inactive) | 72.8 µM (inactive) | 70.5 µM (inactive) | 25.1 µM (inactive) | > 100 µM (inactive) | 27.7 µM (inactive) | 40.2 µM (inactive) | 29.1 µM (inactive) | 16.7 µM (inactive) | – | – | 29.9 µM (inactive)
N=C(N)N/N=C/c1c(-c2ccc(Cl)cc2)nc2sccn12 | 1.95 µM (inactive) | 1.76 µM (inactive) | 1.61 µM (inactive) | 14.6 µM (inactive) | 3.01 µM (inactive) | 3.01 µM (inactive) | 5.4 µM (inactive) | 2.21 µM (inactive) | 1.95 µM (inactive) | 1.95 µM (inactive) | 4.09 µM (inactive) | 1.65 µM (inactive) | 1.8 µM (inactive) | 4.43 µM (inactive) | 3.11 µM (inactive) | 1.56 µM (inactive) | – | 1.65 µM (inactive) | 1.35 µM (inactive)
C=C1C[C@@H]2CC[C@@]34C[C@H]5O[C@H]6[C@@H](O3)[C@H]3O[C@H](CC[C@@H]3O[C@H]6[C@H]5O4)CC(=O)C[C@@H]3[C@@H](OC)[C@@H](C[C@H](O)CN)O[C@H]3C[C@H]3O[C@@H](CC[C@@H]1O2)C[C@@H](C)C3=C [ERIBULIN MESYLATE] | 0.00598 µM (active) | 0.00172 µM (active) | 0.00328 µM (active) | 0.007 µM (active) | 0.0815 µM (active) | 0.00703 µM (active) | 0.294 µM (active) | 0.000522 µM (active) | – | 0.00361 µM (active) | – | 0.000877 µM (active) | 0.00267 µM (active) | 0.00109 µM (active) | 0.00434 µM (active) | 0.00025 µM (active) | – | 0.0014 µM (active) | 0.00201 µM (active)

From ChEMBL document CHEMBL1201862, “PubChem BioAssay data set” (2004)
